Measurements published in ChEMBL document CHEMBL1201862, “PubChem BioAssay data set” (2004).
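The compound was tested at five concentrations on cells cultured in 96-well plates, with a 48-hour exposure period. At the GI50, growth is halved.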 Active and inactive are the calls of the source. Cut-off read from the data, not from the text of the source: active = GI50 up to about 1.1 µM and inactive = higher.

How the values were obtained:
Assay in all cases: inhibition of tumour cell growth, NCI panel, 48 h
M19-MEL = test system: M19-MEL
TK-10 = test system: TK-10
SNB-19 = test system: SNB-19
KM12 = test system: KM12
HOP-92 = test system: HOP-92
M14 = test system: M14
SR = test system: SR
SK-OV-3 = test system: SK-OV-3
CAKI-1 = test system: CAKI-1
HT-29 = test system: HT-29
MOLT-4 = test system: MOLT-4
SK-MEL-2 = test system: SK-MEL-2
DMS-273 = test system: DMS-273
UACC-257 = test system: UACC-257
OVCAR-4 = test system: OVCAR-4
OVCAR-3 = test system: OVCAR-3
ACHN = test system: ACHN
DU-145 = test system: DU-145
BT-549 = test system: BT-549
MCF7 = test system: MCF7

Structure (SMILES)	GI50 (M19-MEL)	GI50 (TK-10)	GI50 (SNB-19)	GI50 (KM12)	GI50 (HOP-92)	GI50 (M14)	GI50 (SR)	GI50 (SK-OV-3)	GI50 (CAKI-1)	GI50 (HT-29)	GI50 (MOLT-4)	GI50 (SK-MEL-2)	GI50 (DMS-273)	GI50 (UACC-257)	GI50 (OVCAR-4)	GI50 (OVCAR-3)	GI50 (ACHN)	GI50 (DU-145)	GI50 (BT-549)	GI50 (MCF7)
CC(=O)C1=CSC2[C@H](NC(=O)Cc3ccccc3)C(=O)N2C1C(=O)OC(c1ccccc1)c1ccccc1 (some centres undefined)	96.4 µM (inactive)	> 100 µM (inactive)	> 100 µM (inactive)	> 100 µM (inactive)	46.5 µM (inactive)	> 100 µM (inactive)	36.7 µM (inactive)	> 100 µM (inactive)	59 µM (inactive)	> 100 µM (inactive)	35.8 µM (inactive)	> 100 µM (inactive)	67.9 µM (inactive)	> 100 µM (inactive)	> 100 µM (inactive)	> 100 µM (inactive)				
COC(=O)c1cc(OC(C)=O)c2c(OC)ccc(OC)c2c1	> 100 µM (inactive)	> 100 µM (inactive)		> 100 µM (inactive)	> 100 µM (inactive)	> 100 µM (inactive)	86.1 µM (inactive)	> 100 µM (inactive)	> 100 µM (inactive)	47.9 µM (inactive)	60.8 µM (inactive)	> 100 µM (inactive)	> 100 µM (inactive)	> 100 µM (inactive)	> 100 µM (inactive)	> 100 µM (inactive)	> 100 µM (inactive)			
CC(C)=CC(=O)Cc1nc2cc(C)c(C)cc2[nH]c1=O	> 100 µM (inactive)	> 100 µM (inactive)	> 100 µM (inactive)	> 100 µM (inactive)	24.9 µM (inactive)	> 100 µM (inactive)	> 100 µM (inactive)	> 100 µM (inactive)	> 100 µM (inactive)	> 100 µM (inactive)	> 100 µM (inactive)	> 100 µM (inactive)	> 100 µM (inactive)	> 100 µM (inactive)	87.1 µM (inactive)	> 100 µM (inactive)	> 100 µM (inactive)			
CN(C)CC1CCC(CN(C)C)C(=O)C1=O (centres undefined)	19 µM (inactive)	3.6 µM (inactive)	17.7 µM (inactive)	14.2 µM (inactive)	1.99 µM (inactive)	5.52 µM (inactive)	2.09 µM (inactive)	24 µM (inactive)	1.99 µM (inactive)	7.64 µM (inactive)	2.03 µM (inactive)	19.3 µM (inactive)	15.8 µM (inactive)	2.4 µM (inactive)	7.8 µM (inactive)	2.31 µM (inactive)	4.85 µM (inactive)	16.5 µM (inactive)	8.67 µM (inactive)	2.46 µM (inactive)
O=c1c2cccc3cccc(c4n1CCCN=4)c32	> 100 µM (inactive)	47.5 µM (inactive)		> 100 µM (inactive)	> 100 µM (inactive)	> 100 µM (inactive)	31.3 µM (inactive)	> 100 µM (inactive)	> 100 µM (inactive)	> 100 µM (inactive)	35.7 µM (inactive)	> 100 µM (inactive)	> 100 µM (inactive)	> 100 µM (inactive)	> 100 µM (inactive)	> 100 µM (inactive)	> 100 µM (inactive)			
CC(=O)OC1CCCn2c1nc1c2C(=O)C(C)=C(N2CC2)C1=O (centres undefined)	0.392 µM (active)	2.75 µM (inactive)	0.338 µM (active)	0.403 µM (active)	27.8 µM (inactive)	0.163 µM (active)	18.1 µM (inactive)	0.364 µM (active)	0.296 µM (active)	0.208 µM (active)	19.4 µM (inactive)	0.277 µM (active)	0.15 µM (active)	0.242 µM (active)	0.773 µM (active)	0.329 µM (active)	0.254 µM (active)			
CN(C)/N=N/c1ccc(C(N)=O)cc1	> 100 µM (inactive)	> 100 µM (inactive)	> 100 µM (inactive)	> 100 µM (inactive)	> 100 µM (inactive)	> 100 µM (inactive)	> 100 µM (inactive)	> 100 µM (inactive)	> 100 µM (inactive)	> 100 µM (inactive)	> 100 µM (inactive)	> 100 µM (inactive)	> 100 µM (inactive)	> 100 µM (inactive)	> 100 µM (inactive)	> 100 µM (inactive)	> 100 µM (inactive)			
